The text below walks through data of ChEMBL document CHEMBL3867487, “Discovery of 2'-α-C-Methyl-2'-β-C-fluorouridine Phosphoramidate Prodrugs as Inhibitors of Hepatitis C Virus” (ACS Med Chem Lett, 2016).

Data set [1] deals with Hepatitis C virus. Description: Antiviral activity against HCV JFH-1 infected in human HuH7.5.1 cells after 48 hrs by luciferase reporter gene assay. Type of data set: functional, cell-based, Hepacivirus hominis. The settings on record: genotype 2a JFH-1, Huh-7, 48 h. Background: Reporter assays use an easily measured gene product as a stand-in for the process of interest.

A short description of data set [2]: Cytotoxicity against human Huh7.5.1 cells after 48 hrs by luciferase reporter gene assay. It counts as toxicity, cell-based, Huh-7.
Data set [3] relates to Hepatitis C virus. As to the kind of experiment: Antiviral activity against HCV infected in human Huh7 cells assessed as reduction in viral RNA replication after 4 days. Type of data set: functional, cell-based, Hepacivirus hominis. Conditions: Huh-7, 96 h.

Structures are written as SMILES.

Usually EC50 stands for the concentration giving half of the maximal effect. For orientation: CC50 means the concentration that lowers cell viability or growth by half. Low readings indicate harm at low concentration, high ones better tolerance by the cells. `CCCCCOC(=O)[C@H](C)NP(=O)(OC[C@H]1O[C@@H](n2ccc(=O)[nH]c2=O)[C@@](C)(F)[C@@H]1O)Oc1ccccc1` (some centres undefined): the EC50 in data set [1] was > 50 µM. Besides, the CC50 at 48 h in data set [2] is > 100 µM.

With `CSCC[C@@H](NP(=O)(OC[C@H]1O[C@@H](n2ccc(=O)[nH]c2=O)[C@@](C)(F)[C@@H]1O)Oc1ccccc1)C(=O)OC(C)C` (some centres undefined), the EC50 in data set [1] was > 50 µM. In addition, the CC50 at 48 h in data set [2] is > 100 µM.

In the case of `CC(C)OC(=O)[C@@H](Cc1c[nH]c2ccccc12)NP(=O)(OC[C@H]1O[C@@H](n2ccc(=O)[nH]c2=O)[C@@](C)(F)[C@@H]1O)Oc1ccccc1` (some centres undefined), a half-maximal effect in data set [1] (EC50) was put at 0.88 µM. In addition, in data set [2], the half-maximal cytotoxic concentration (CC50) at 48 h was > 100 µM.

`CSCC[C@H](NP(=O)(OC[C@H]1O[C@@H](n2ccc(=O)[nH]c2=O)[C@@](C)(F)[C@@H]1O)Oc1ccccc1)C(=O)OC(C)C` (some centres undefined) came in with a half-maximal effective concentration (EC50) in data set [1] of 2.24 µM. Moreover, the CC50 at 48 h in data set [2] was > 100 µM.

Take `C[C@H](NP(=O)(OC[C@H]1O[C@@H](n2ccc(=O)[nH]c2=O)[C@@](C)(F)[C@@H]1O)Oc1ccccc1)C(=O)OCc1ccccc1` (some centres undefined): the concentration giving a half-maximal response (EC50) in data set [1] was > 50 µM. Also, the CC50 at 48 h in data set [2] is > 100 µM.

Turning to `CC(C)OC(=O)[C@H](C)NP(=O)(OC[C@H]1O[C@@H](n2ccc(=O)[nH]c2=O)[C@@](C)(F)[C@@H]1O)Oc1ccccc1` (some centres undefined), a half-maximal response in data set [1] (EC50) required 34.2 µM. In addition, the CC50 at 48 h in data set [2] was > 100 µM.

As to `CCCOC(=O)[C@H](C)NP(=O)(OC[C@H]1O[C@@H](n2ccc(=O)[nH]c2=O)[C@@](C)(F)[C@@H]1O)Oc1ccccc1` (some centres undefined), the EC50 in data set [1] is > 50 µM. For the same compound, the CC50 at 48 h in data set [2] is > 100 µM.

As for `CC(C)OC(=O)[C@H](Cc1c[nH]c2ccccc12)NP(=O)(OC[C@H]1O[C@@H](n2ccc(=O)[nH]c2=O)[C@@](C)(F)[C@@H]1O)Oc1ccccc1` (some centres undefined), in data set [1], the EC50 is > 50 µM. Also, the CC50 at 48 h in data set [2] was > 100 µM.

As for `CC(C)OC(=O)[C@H](Cc1ccccc1)NP(=O)(OC[C@H]1O[C@@H](n2ccc(=O)[nH]c2=O)[C@@](C)(F)[C@@H]1O)Oc1ccccc1` (some centres undefined), a half-maximal effect in data set [1] (EC50) was put at 33.3 µM. Moreover, the cytotoxic concentration (CC50) at 48 h in data set [2] was > 100 µM.

With `C[C@@]1(F)[C@H](O)[C@@H](CO)O[C@H]1n1ccc(N)nc1=O`, the concentration for a half-maximal effect (EC50) in data set [3] turned out to be 4.5 µM.

`CC(C)OC(=O)CNP(=O)(OC[C@H]1O[C@@H](n2ccc(=O)[nH]c2=O)[C@@](C)(F)[C@@H]1O)Oc1ccccc1` (some centres undefined) yielded an EC50 in data set [1] of 22.9 µM. Also, in data set [2], the CC50 at 48 h was > 100 µM.

As to `CC(C)OC(=O)[C@@H](NP(=O)(OC[C@H]1O[C@@H](n2ccc(=O)[nH]c2=O)[C@@](C)(F)[C@@H]1O)Oc1ccccc1)C(C)C` (some centres undefined), the half-maximal effective concentration (EC50) in data set [1] is > 50 µM. Further, in data set [2], the CC50 at 48 h was > 100 µM.

In turn, `CC(C)OC(=O)[C@@H](C)NP(=O)(OC[C@H]1O[C@@H](n2ccc(=O)[nH]c2=O)[C@@](C)(F)[C@@H]1O)Oc1ccccc1` (some centres undefined) registered an EC50 in data set [1] of 34.3 µM. The half-maximal cytotoxic concentration (CC50) at 48 h in data set [2] is > 100 µM.

Turning to `CCOC(=O)[C@H](C)NP(=O)(OC[C@H]1O[C@@H](n2ccc(=O)[nH]c2=O)[C@@](C)(F)[C@@H]1O)Oc1ccccc1` (some centres undefined), the EC50 in data set [1] is > 50 µM. Besides, the cytotoxic concentration (CC50) at 48 h in data set [2] was > 100 µM.

As for `CCCCOC(=O)[C@H](C)NP(=O)(OC[C@H]1O[C@@H](n2ccc(=O)[nH]c2=O)[C@@](C)(F)[C@@H]1O)Oc1ccccc1` (some centres undefined), the EC50 in data set [1] is > 50 µM. For the same compound, in data set [2], the CC50 at 48 h was > 100 µM.

`C[C@]1(F)[C@H](O)[C@@H](CO)O[C@H]1n1ccc(=O)[nH]c1=O` registered an EC50 in data set [1] of 14.7 µM. For the same compound, the half-maximal cytotoxic concentration (CC50) at 48 h in data set [2] was > 100 µM.

In the case of `CCCCCCOC(=O)[C@H](C)NP(=O)(OC[C@H]1O[C@@H](n2ccc(=O)[nH]c2=O)[C@@](C)(F)[C@@H]1O)Oc1ccccc1` (some centres undefined), the EC50 in data set [1] was > 50 µM. For the same compound, the half-maximal cytotoxic concentration (CC50) at 48 h in data set [2] is > 100 µM.

In general, EC90 refers to the concentration at which the effect reaches the 90% level. `CC(C)OC(=O)[C@H](C)N[P@](=O)(OC[C@H]1O[C@@H](n2ccc(=O)[nH]c2=O)[C@](C)(F)[C@@H]1O)Oc1ccccc1` [SOFOSBUVIR]: in data set [3], the EC90 turned out to be 0.42 µM. Further, it took 0.12 µM to reach a half-maximal effect in data set [1] (EC50). Further, the CC50 at 48 h in data set [2] is > 100 µM.

Consider `CC(C)OC(=O)[C@@H](Cc1ccccc1)NP(=O)(OC[C@H]1O[C@@H](n2ccc(=O)[nH]c2=O)[C@@](C)(F)[C@@H]1O)Oc1ccccc1` (some centres undefined), for which the concentration for a half-maximal effect (EC50) in data set [1] came to 35.3 µM. Further, the cytotoxic concentration (CC50) at 48 h in data set [2] is > 100 µM.

Take `C[C@H](NP(=O)(OC[C@H]1O[C@@H](n2ccc(=O)[nH]c2=O)[C@@](C)(F)[C@@H]1O)Oc1ccccc1)C(=O)OC1CCCCC1` (some centres undefined): the EC50 in data set [1] was > 50 µM. Moreover, the cytotoxic concentration (CC50) at 48 h in data set [2] was > 100 µM.

On to `COC(=O)[C@H](C)NP(=O)(OC[C@H]1O[C@@H](n2ccc(=O)[nH]c2=O)[C@@](C)(F)[C@@H]1O)Oc1ccccc1` (some centres undefined), for which, in data set [1], the half-maximal effective concentration (EC50) was > 50 µM. Further, the half-maximal cytotoxic concentration (CC50) at 48 h in data set [2] is > 100 µM.

Take `CC(C)OC(=O)[C@H](NP(=O)(OC[C@H]1O[C@@H](n2ccc(=O)[nH]c2=O)[C@@](C)(F)[C@@H]1O)Oc1ccccc1)C(C)C` (some centres undefined): the EC50 in data set [1] came to 1.82 µM. Further, the half-maximal cytotoxic concentration (CC50) at 48 h in data set [2] was > 100 µM.
